What was measured:
[1] = electrochemical (ac voltammetry) ligand binding of protein-modified gold electrode, glucose; details: gold disk electrode, 0.1 kHz, read-out: eKd(glucose), dissociation constant of the assembly, determined electrochemically
Procedure: FIGS. 4A–4D. Ligand-mediated electrochemical responses of four electroactive biomolecular assemblies. Inserts show the current responses observed at different ligand concentrations, measured by scanning the potential at a constant frequency. FIG. 4A. G174C-MBP (1 kHz; ^eKd(maltose)=4 μM; ^fKd(maltose)=1 μM), FIG. 4B. L255C-GBP (0.1 kHz; ^eKd(glucose)=2.0 μM; ^fKd(glucose)=0.4 μM), FIG. 4C. G174C-eZBP, a redesigned variant of MBP that binds zinc (1 kHz; ^eKd (zinc)=10 μM; ^fKd(zinc)=3 μM), FIG. 4D. […]
Electrochemistry. […] Ac current baselines were calculated by linear extrapolation between equidistant potentials from the observed midpoint reduction potential (˜220 mV), as reported previously (Creager et al, Anal. Chem. 70:4257–4263 (1998)). […]

[2] = solution ligand binding by intrinsic tryptophan fluorescence of the conjugates, glucose; details: read-out: fKd(glucose), dissociation constant of the protein free in solution
Procedure: FIGS. 4A–4D. Ligand-mediated electrochemical responses of four electroactive biomolecular assemblies. Inserts show the current responses observed at different ligand concentrations, measured by scanning the potential at a constant frequency. FIG. 4A. G174C-MBP (1 kHz; ^eKd(maltose)=4 μM; ^fKd(maltose)=1 μM), FIG. 4B. L255C-GBP (0.1 kHz; ^eKd(glucose)=2.0 μM; ^fKd(glucose)=0.4 μM), FIG. 4C. G174C-eZBP, a redesigned variant of MBP that binds zinc (1 kHz; ^eKd (zinc)=10 μM; ^fKd(zinc)=3 μM), FIG. 4D. E163C-QBP (0.16 kHz; ^eKd(glutamine)=1.0 μM; ^fKd(glutamine)=0.2 μM. Two binding constants are reported: ^eKd is dissociation constant of the assembly, determined electrochemically; ^fKd is the dissocation constant of the protein free in solution, determined by measuring changes in the intrinsic tryptophan fluorescence of the conjugates. (For every protein presented, the ligand-binding affinities determined electrochemically using a disk gold electrode are 2–5 fold weaker than those in solution. However, if a gold microelectrode prepared by flame annealing a gold wire (Creager et al, Anal. Chem. 70:4257 (1998)) is used instead of a gold disk electrode, the electrochemically determined affinities are similar to the solution affinities.
Protein purification and labeling. […]

Kd [1]: 2000 nM
Kd [2]: 400 nM
Substance: L255C-GBP: glucose-binding protein mutant L255C carrying the Ru(II) redox reporter

Reference: patent US6977180B2, “Biosensor” (Duke University, priority 2001, dated 2005)
